Measured values: patent US20190048342A1, “CROSS-REGULATION OF TYPE I INTERFERON SIGNALING PATHWAYS” (THE METHODIST HOSPITAL SYSTEM, priority 2016, published 2019)

Key:
P. berghei ANKA = details: previous studies; cited from earlier work
RNA polymerase III = experiment: IFN-β mRNA in RAW264.7 cells after P. yoelii YM gDNA stimulation, with RNA polymerase III knockdown or inhibition; assay type: cell-based; details: siRNA 48 h or ML60218 pretreatment 24 h, then P. yoelii YM gDNA stimulation 6 h
Description: FIGS. 10A to 10G show type I IFN gene expression after P. yoelii YM gDNA or RNA stimulation and WT mice serum cytokine level after P. yoelii YM infection. […] Data are plotted as the mean±s.d. and are representative of three independent experiments. *P<0.05, **P<0.01, ***P<0.001 vs. corresponding control. ND, not detected; NS, not significant.
To understand the molecular mechanisms by which mice deficient in the cGAS, Sting, Mda5, or Mavs gene were resistant to P. yoelii YM infection, experiments were conducted to determine whether cGAS and MDA5 function as DNA/RNA sensors for detecting P. yoelii YM gDNAs or RNAs (FIG. 2a). Both purified P. yoelii YM gDNA and RNA could induce IFN-β mRNA expression in RAW264.7 cells (FIG. 2b). The ability of P. yoelii YM gDNA to induce type I IFN response was completely abolished upon DNase, but not RNase, treatment (FIG. 10a). Similarly, the stimulating activity of parasite RNA was abolished after treatment with RNase, but not DNase (FIG. 10a), which is in agreement with other studies showing that malaria RNA can be detected by MDA5 sensor (Liehl, P. et al. Nat Med 20:47-53 (2014); Wu, J. et al. Proc Natl Acad Sci USA 111:E511-520 (2014)). […]

P. yoelii YM [1] = experiment: Serum cytokine levels (ELISA) in mice after P. yoelii YM infection; assay type: in vivo, mouse
Description: (§1) The parasite Plasmodium yoelii YM, N67C and N67 have been previously described (Li, J. et al. Proc Natl Acad Sci USA 108:E374-382 (2011)). For plasmodium infection, 0.2 (low) or 2×10^6 iRBCs (otherwise, indicated specifically in the figure legend) suspended in 200 μl PBS from the donor mice were intraperitoneally injected into experimental mice. A higher parasite dose (1×10^7 iRBCs) was used in some experiments. Parasitemias were monitored daily by examination of Giemsa-stained thin tail blood smears. Female mice C57BL/6 (WT), Mavs^−/−, Mda5^−/−, Myd88^−/−, Sting^−/−, Trif^−/−, BDCA2-DTR, Tlr2^−/−, Tlr3^−/−, and Tlr4^−/− mice were purchased from The Jackson Laboratory. Tlr9^−/− mice, Tlr7^−/−, Rig-I^−/− mice, Irf3^−/−:Irf7^−/− mice, and cGAS^−/− mice were obtained. All mouse-related procedures were performed according to experimental protocols approved by the Animal Care and Welfare Committee at Houston Methodist Research Institute and in accordance with NIH-approved animal study protocol LMVR-11E.
(§2) To deplete pDCs, pDC-depleting functional-grade mAb (anti-mPDCA-1 IgG, clone JF05-1C2.4.1) and the corresponding isotype control IgG, which served as control, were purchased from Miltenyi Biotec (Auburn, Calif.). Two intraperitoneal injections of antibody (250 μg/mouse) per mouse were administered 12 h prior and after YM infection.
Mouse splenocytes were prepared from spleens cut into small fragments and digested with collagenase D (1 mg/ml, Sigma) and DNAse I (20 μg/ml, Sigma) in RPMI-1640 medium for 30 min. […] Cells were analyzed using the BD FACS Aria II. […]
In Vivo Ready siRNAs were mixed with Invivofectamine 3.0 liposomes (Invitrogen) following the manufacturer's instructions and injected intravenously in a volume of 100 μl at a dose of 5 mg/kg. […]
The parasite Plasmodium yoelii YM and Plasmodium yoelii N67C have been previously described (Wu, J. et al. Proc Natl Acad Sci USA 111:E511-520 (2014); Li, J. et al. Proc Natl Acad Sci USA 108:E374-382 (2011)). […] Parasitemias were monitored daily by examination of Giemsa-stained thin tail blood smears. […]

P. yoelii YM [2] = experiment: Daily parasitemia and mortality of mice after P. yoelii YM infection; assay type: in vivo, mouse
Description: as §1, §2
In Vivo Ready siRNAs were mixed with Invivofectamine 3.0 liposomes (Invitrogen) following the manufacturer's instructions and injected intravenously in a volume of 100 μl at a dose of 5 mg/kg. Mice were infected with P. yoelii YM (0.5×10^6 iRBCs) 48 h after siRNA treatment.
Deficient (Mda5^−/−, Mavs^−/−, and Sting^−/−) mice were crossed with BDCA2-DTR transgenic mice and treated with diphtheria toxin (DT, Sigma-Aldrich) intraperitoneally (i.p.) at a dose of 100-120 ng/mouse. pDCs were depleted by DT injection at 1 day before and 1, 3, and 5 days after P. yoelii YM infection.
The parasite Plasmodium yoelii YM and Plasmodium yoelii N67C have been previously described (Wu, J. et al. Proc Natl Acad Sci USA 111:E511-520 (2014); Li, J. et al. Proc Natl Acad Sci USA 108:E374-382 (2011)). For plasmodium infection, 0.2 (low) or 2×10^6 iRBCs (otherwise, indicated specifically in the figure legend) suspended in 200 μl PBS from the donor mice were intraperitoneally injected into experimental mice. Parasitemias were monitored daily by examination of Giemsa-stained thin tail blood smears. Female mice C57BL/6 (WT), Mavs^−/−, Mda5^−/−, Sting^−/−, BDCA2-DTR, zDC-DTR, Ifnar^−/−, and Rag2^−/− mice were purchased from The Jackson Laboratory. All mouse-related procedures were performed according to experimental protocols approved by the Animal Care and Welfare Committee at Houston Methodist Research Institute and in accordance with NIH-approved animal study protocol LMVR-11E.
To block type I IFN receptor, anti-mouse interferon α/β receptor antibodies (Leinco Technologies), in the amount of 500 μg in PBS at day 0, 2, 4, and 250 μg at day 6 after infection (or indicated specifically in the figure legend), were intraperitoneally injected into WT and deficient mice. Mouse IgG antibody was used as control, and parasitemias were monitored by daily Giemsa-stained blood smears. To test the role of type I IFN cytokines, C57BL/6 mice were first infected with P. yoelii YM, and then intravenously injected with 800 U/g mouse recombinant IFN-α and IFN-β, recombinant IL-6, or recombinant IFN-γ at the indicated time points. Bovine serum albumin (BSA, 0.1%) in PBS served as a control, and parasitemias were monitored by daily Giemsa-stained blood smears. To deplete pDCs, pDC-depleting functional-grade mAb (anti-mPDCA-1 IgG, clone JF05-1C2.4.1) was purchased from Miltenyi Biotec (Auburn, Calif.), and the corresponding isotype control IgG served as control. Two intraperitoneally injections of antibody (250 μg/mouse) per mouse were administered 12 h prior and after plasmodium YM infection or indicated specifically in the figure legend. […]

[3] = Sting-/- mice, macrophage depletion at one day post infection, vs liposome control or treatment two days before
[4] = Mavs-/-:zDC-DTR mice, DT after 24 h of infection, vs untreated or DT four days before
[5] = WT mice, recombinant cytokine i.v. at 18 h post YM infection

## murine IFN-β: murine IFN-β of previous studies
P. berghei ANKA
  protection of mice from ANKA infection: protect

## Cc1c(-c2cc(NS(=O)(=O)c3ccccc3Cl)n(C)n2)sc2ccc(Cl)cc12 [ML60218]
RNA polymerase III
  IFN-β mRNA expression: markedly inhibited

## O=P(O)(O)C(Cl)(Cl)P(=O)(O)O [clodronate]
P. yoelii YM [1]; Sting-/- mice, macrophage depletion two days before or one day after YM infection
  serum levels of IFN-α and IFN-β: did not affect
P. yoelii YM [2]; [3]
  host mortality: markedly increased parasitemia and host mortality
  parasitemia: markedly increased parasitemia and host mortality

## diphtheria toxin [DT]
P. yoelii YM [1]; Mavs-/-:BDCA2-DTR mice treated with DT vs Mavs-/- mice treated with DT, 24 h after infection
  serum IFN-α and IFN-β: markedly reduced
P. yoelii YM [1]; Mavs-/-:zDC-DTR chimeric mice, DT four days before or one day post infection
  serum levels of IFN-α and IFN-β: no change
P. yoelii YM [2]; DT-treated Mavs-/-:BDCA2-DTR mice vs DT-treated Mavs-/- mice
  sensitivity to P. yoelii YM infection based on parasitemia and survival: sensitive to P. yoelii YM infection
P. yoelii YM [2]; [4]
  parasitemia: increased parasitemia
  time of death: died sooner

B1: IL-6: recombinant IL-6 injected intravenously (protein, UniProt P08505 25-211, looked up)
Interleukin-6: FPTSQVRRGDFTEDTTPNRPVYTTSQVGGLITHVLWEIVEMRKELCNGNSDCMNNDDALAENNLKLPEIQRNDGCYQTGYNQEICLLKISSGLLEYHSYLEYMKNNLKDNKKDKARVLQRDTETLIHIFNQEVKDLHKIVLPTPISNALLTDKLESQKEWLRTKTIQFILKSLEEFLKVTLRSTRQT
P. yoelii YM [2]; [5]
  host mortality: failed to do so
  parasitemia: failed to do so

B2: IFN-γ: recombinant IFN-γ injected intravenously (protein, UniProt P01580 23-155, looked up)
Interferon gamma: HGTVIESLESLNNYFNSSGIDVEEKSLFLDIWRNWQKDGDMKILQSQIISFYLRLFEVLKDNQAISNNISVIESHLITTFFSNSKAKKDAFMSIAKFEVNNPQVQRQAFNELIRVVHQLLPESSLRKRKRSRC
P. yoelii YM [2]; [5]
  host mortality: failed to do so
  parasitemia: slightly increased
